The text below walks through data of ChEMBL document CHEMBL1201862, “PubChem BioAssay data set” (2004).

What all share (test): NCI-60 cell line screen, 48 h
The subject of assay [1] is A498.
For assay [2], the system named is COLO 205.
Assay [3] relates to HCT-116.
For assay [4], the system named is HL-60.
Assay [5] deals with K562.
Assay [6] deals with KM12.
The test system of assay [7] is MDA-MB-435.
Assay [8] has as its system MOLT-4.
In assay [9] the test system is Malme-3M.
Assay [10] concerns NCI-H226.
Assay [11] relates to NCI-H522.
The test system of assay [12] is OVCAR-3.
Assay [13] deals with RXF 393.
The test system of assay [14] is SF-295.
In assay [15] the test system is TK-10.
Assay [16] concerns UACC-257.
The test system of assay [17] is CCRF-CEM.
Assay [18] deals with EKVX.
Assay [19] relates to OVCAR-4.
Assay [20] relates to HCC 2998.

Molecules are shown by their SMILES.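 These data come from cells grown in 96-well plates and exposed to compound for 48 hours at five concentrations. GI50 marks 50% less growth.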 Active and inactive are the calls of the source. No stated cut-off is given here; in the data, active = GI50 up to about 1.1 µM and inactive = higher.

With `O=C1CC2(CCN(Cc3ccccc3)CC2)C(=O)N1N1CCCCC1`, the GI50 in assay [1], in assay [2], in assay [3], in assay [4], in assay [5] and in [6] was > 100 µM (inactive) in each case. In addition, the GI50 in [7], in assay [8], in [9], in [10], in assay [11] and in [12] was > 100 µM (inactive) in each case. Besides, the GI50 in assay [13], in assay [14], in assay [15] and in [16] was > 100 µM (inactive) throughout.

With `COc1cc2c(c(O)c1O)C(=O)C1CCC(=O)N1C2c1cccc2ccccc12` (stereo unspecified), the GI50 in assay [1], in [17], in [2], in assay [18], in [3] and in assay [4] was > 50 µM (inactive) in each case. The GI50 in assay [5], in [6], in [7], in assay [8], in assay [10] and in [11] was > 50 µM (inactive) each time. For the same molecule, the GI50 in assay [12] is > 50 µM (inactive); in [19], > 50 µM (inactive); in [13] it was 6.28 µM (inactive); in [14], > 50 µM (inactive); in [16], > 50 µM (inactive).

As for `O=C(c1ccco1)N(C(=O)N1CCN(c2ccccc2)CC1)S(=O)(=O)c1ccccc1`, the GI50 in assay [1] was 37.5 µM (inactive); in [17] it was 27 µM (inactive); in assay [2], 28.4 µM (inactive); in [18] it was 22.4 µM (inactive); in [20], 48.4 µM (inactive); in [3], 21.3 µM (inactive). Moreover, the GI50 was 21.2 µM (inactive) in assay [4]; 33 µM (inactive) in assay [5]; 37.8 µM (inactive) in [6]; 23.3 µM (inactive) in assay [7]; 21.9 µM (inactive) in assay [8]; 29 µM (inactive) in assay [9]. In addition, the GI50 is 26.4 µM (inactive) in [10]; 18.3 µM (inactive) in assay [11]; 26.9 µM (inactive) in [12]; 27.5 µM (inactive) in [19]; 43.6 µM (inactive) in [14]; 33.3 µM (inactive) in assay [15]. Further, in assay [16], the GI50 is 32 µM (inactive).

As to `O=C(O)c1ccc(CNCc2ccccc2)cc1`, the GI50 in assay [1], in [17], in [2], in assay [18], in assay [3] and in assay [4] was > 100 µM (inactive) in each case. For the same molecule, the GI50 in assay [5], in [6], in assay [7], in assay [8], in assay [9] and in assay [10] was > 100 µM (inactive) throughout. The GI50 in assay [11], in assay [12], in assay [19], in assay [13], in assay [14] and in [15] was > 100 µM (inactive) throughout. Further, the GI50 in [16] was > 100 µM (inactive).

Consider `COc1c(-c2cccs2)oc2c(CC(=O)O)cccc2c1=O`, for which the GI50 in assay [1] was 86.3 µM (inactive); in assay [17] it was > 100 µM (inactive); in assay [2] it was > 100 µM (inactive); in [18] it was > 100 µM (inactive); in [20] it was > 100 µM (inactive); in assay [3], > 100 µM (inactive). Further, the GI50 in assay [4] is 0.0702 µM (active); in assay [5], > 100 µM (inactive); in assay [7], > 100 µM (inactive); in [8], 56.9 µM (inactive); in assay [9] it was > 100 µM (inactive); in assay [11] it was > 100 µM (inactive). The GI50 in assay [12], in assay [13], in assay [14], in [15] and in assay [16] was > 100 µM (inactive) throughout.

In the case of `O=C(/C=C\c1ccc(Cl)cc1Cl)c1cccs1`, the GI50 is 19.7 µM (inactive) in [1]; 21.3 µM (inactive) in assay [17]; 16.5 µM (inactive) in assay [2]; 16.9 µM (inactive) in assay [18]; 9.57 µM (inactive) in [3]; 37.2 µM (inactive) in [4]. The GI50 was 21.1 µM (inactive) in assay [5]; 16.3 µM (inactive) in assay [6]; 16.6 µM (inactive) in [7]; 30.2 µM (inactive) in [8]; 21.4 µM (inactive) in assay [9]; 20.7 µM (inactive) in [10]. Moreover, the GI50 was 21.2 µM (inactive) in [11]; 28.4 µM (inactive) in assay [12]; 24 µM (inactive) in [13]; 18.3 µM (inactive) in [14]; 24.5 µM (inactive) in assay [15]; 19.5 µM (inactive) in assay [16].

For the molecule `CN(C)CCCNc1ccc2nnn3c4ccc(OC(=O)c5ccc([N+](=O)[O-])cc5)cc4c(=O)c1c23`, the GI50 in [1] is 16.6 µM (inactive); in assay [17], 0.849 µM (active); in [2], 5.22 µM (inactive); in assay [18], 8.85 µM (inactive); in assay [20], 5.64 µM (inactive); in assay [3], 1.51 µM (inactive). The GI50 is 2.86 µM (inactive) in [5]; 5.64 µM (inactive) in assay [6]; 5.7 µM (inactive) in assay [7]; 0.408 µM (active) in [8]; 4.92 µM (inactive) in assay [9]; 1.32 µM (inactive) in assay [11]. The GI50 is 10.9 µM (inactive) in [12]; 2.47 µM (inactive) in assay [19]; 1.33 µM (inactive) in assay [13]; 5.6 µM (inactive) in assay [14]; 5.82 µM (inactive) in [15]; 11.7 µM (inactive) in assay [16].

For the molecule `C/C=C1\C(=O)O[C@H]2C/C(C)=C/CC/C(C)=C/CC[C@@]3(C)O[C@@H]3C[C@@H]12`, the GI50 is > 100 µM (inactive) in [1]; 35 µM (inactive) in assay [17]; > 100 µM (inactive) in assay [2]; > 100 µM (inactive) in assay [18]; > 100 µM (inactive) in assay [20]; > 100 µM (inactive) in assay [3]. The GI50 in assay [4] is 52 µM (inactive); in assay [5], > 100 µM (inactive); in assay [6], > 100 µM (inactive); in assay [7] it was > 100 µM (inactive); in [8], 95.1 µM (inactive); in [9] it was > 100 µM (inactive). The GI50 in [12], in assay [13], in assay [14], in [15] and in assay [16] was > 100 µM (inactive) throughout.
